# Laboratory results taken from US20220347267A1, “METHODS TO IMPROVE PATIENT RESPONSE TO IMMUNE CHECKPOINT INHIBITORS AND FUNCTIONAL TESTS TO PREDICT RESPONSE” (Biomarker Strategies, LLC, priority 2019, published 2022).
# B1: TNFb: enhancer molecule, 50 ng/ml; Sigma Aldrich (protein, UniProt P01374 35-205, looked up)
# Lymphotoxin-alpha: LPGVGLTPSAAQTARQHPKMHLAHSTLKPAAHLIGDPSKQNSLLWRANTDRAFLQDGFSLSNNSLLVPTSGIYFVYSQVVFSGKAYSPKATSSPLYLAHEVQLFSSQYPFHVPLLSSQKMVYPGLQEPWLHSMYHGAAFQLTQGDQLSTHTDGIPHLVLSPSTVFFGAFAL
# B2: IL12: interleukin modulator, 50 ng/ml; Sigma Aldrich (protein, UniProt P29459 23-219; P29460 23-328, looked up)
# Interleukin-12 subunit alpha: RNLPVATPDPGMFPCLHHSQNLLRAVSNMLQKARQTLEFYPCTSEEIDHEDITKDKTSTVEACLPLELTKNESCLNSRETSFITNGSCLASRKTSFMMALCLSSIYEDLKMYQVEFKTMNAKLLMDPKRQIFLDQNMLAVIDELMQALNFNSETVPQKSSLEEPDFYKTKIKLCILLHAFRIRAVTIDRVMSYLNAS
# Interleukin-12 subunit beta: IWELKKDVYVVELDWYPDAPGEMVVLTCDTPEEDGITWTLDQSSEVLGSGKTLTIQVKEFGDAGQYTCHKGGEVLSHSLLLLHKKEDGIWSTDILKDQKEPKNKTFLRCEAKNYSGRFTCWWLTTISTDLTFSVKSSRGSSDPQGVTCGAATLSAERVRGDNKEYEYSVECQEDSACPAAEESLPIEVMVDAVHKLKYENYTSSFFIRDIIKPDPPKNLQLKPLKNSRQVEVSWEYPDTWSTPHSYFSLTFCVQVQGKSKREKKDRVFTDKTSATVICRKNASISVRAQDRYYSSSWSEWASVPCS
# B3: IL1a: interleukin modulator, 1 ng/ml; Sigma Aldrich (protein, UniProt P01583 113-271, looked up)
# Interleukin-1 alpha: SAPFSFLSNVKYNFMRIIKYEFILNDALNQSIIRANDQYLTAAALHNLDEAVKFDMGAYKSSKDDAKITVILRISKTQLYVTAQDEDQPVLLKEMPEIPKTITGSETNLLFFWETHGTKNYFTSVAHPNLFIATKQDYWVCLAGGPPSITDFQILENQA
# Assays:
# Format in all cases: cell-based, human
# [1] = system: BHY cells; assay: PD-L1 western blot after modulators (EM and MTAs); settings: Head and neck BHY, 30 minutes, 3 hours, 24 hours
# From the text: (§1) Cell lines were acquired from ATCC, Sigma, or DSMZ. Human non-small cell lung carcinoma (NSCLC) cell lines H292 (ATCC no. CRL-1848.), H1299 (ATCC no. CRL-5803), H520 (ATCC no. CRL-5811), CALU6 (ATCC no. HTB-56), H1975 (ATCC no. CRL-5908), H460 (ATCC no. HTB-177), H2126 (ATCC no. CCL-256), H1650 (ATCC no. CRL-5883), and H2087 (ATCC no. CRL-5922) were used for this experiment along with head and neck squamous cell carcinoma (HNSCC) cell lines BHY (DSMZ ACC 404), CAL27 (ATCC no. CRL-2095), KYSE410 (Sigma), and A253 (ATCC no. HTB-41), melanoma cell lines A375 (ATCC no. CRL-1619), COL0853 (Sigma), and MM127 (Sigma) pancreatic cancer cell lines BXPC3 (ATCC no. CRL-1687), colorectal cancer cell lines […], HCT116 (ATCC no. CCL-247EMT), and breast cancer cell lines BT549 (ATCC no. HTB-122), BT20 (ATCC no. HTB-19), and T47D (ATCC no. HTB-133). Cells were maintained in manufacturer-recommended conditions at 37° C. inside humidified 5% CO2 incubators. Sub-cultivation and harvesting for all cell lines were performed using Accutase (GIBCO Life Technologies; cat. no. A1110501) at 37° C. for 10 minutes. Cell viability was measured using trypan blue exclusion staining in conjunction with the Countess II Automated Cell Counter (Thermo Fischer Scientific; cat. no. AMQAX1000). Measurements were made in duplicate and the average number of viable cells was recorded prior to experiments.
# (§2) Enhancer Molecule and Therapies: IFNγ, (10 ng/ml; Sigma Aldrich, cat.no 11040596001), TNFα (10 ng/ml; BD Biosciences cat. no. 554618), Osimertinib (100 ng/ml; Selleckchem cat.no. S7297), Everolimus (100 ng/ml; Selleckchem cat.no S1120), GSK458 (10 ng/ml; Selleckchem cat. no. S2658), TNFb (50 ng/ml; Sigma Aldrich cat. no.), GSK795 (1,000 ng/ml; Selleckchem cat. no. S7492), IL-12 (50 ng/ml; Sigma Aldrich SRP3073), GM-CSF (50 ng/ml; Sigma Aldrich cat. no. G5035), IL-1a (1 ng/ml; Sigma Aldrich cat. no. 12778-), IL-6 (50 ng/ml; Sigma Aldrich), IL-17 (100 ng/ml; Sigma Aldrich cat. no. SRP3080), TGFb (1 ng/ml; Sigma Aldrich cat. no. T7039), and IL-10 (50 ng/ml; Sigma Aldrich cat. no. SRP3071) were administered to cell lines for various times including 30 minutes, 3 hour, and 24 hour time intervals prior to cell lysis and protein extraction.
# (§3) To determine the effects of the aforementioned molecules on the modulation of PD-L1, we selected various NSCLC, HNSCC, breast cancer, melanoma, colorectal cancer, and pancreatic cancer cell lines as examples. Other diseases or cell lines could be used readily as could more complex samples such as cells isolated from xenografts and clinical samples. Cells were plated, for three different time points (30 minutes, 3 hours, and 24 hours), inside 6-well petri dishes with 2 mL of appropriate medium. Plates were incubated for 24 hours in 5% CO2 incubators at 37° C. After 24 hours, each 6-well plate was washed with PBS (Gibco Life Technologies, cat. no. 10010023) followed by fresh media being added along with each cell line's vehicle control or appropriate modulator for each specific time point, and were placed in CO2 incubators until their modulation time point was reached. Other conditions can be readily used, such as processing on automated systems such as SnapPath. At the end of each time point, while keeping plates on ice, cell lysis was conducted by aspirating culture medium from each plate, washing of each plate three times with 5 ml of cold PBS (Gibco Life Technologies, cat. no. 10010023) and culminated with the addition of cold 1× lysis buffer containing (Cell Signaling, cat. no. 9803 S) protease inhibitor cocktail (Cell Signaling, cat. no. 5871S), phosphatase inhibitor cocktail (Cell Signaling, cat. no. 5870S), and PMSF (Fisher Scientific, cat. no. ICN19538101). Plates were then placed on ice for ten minutes, swirling each plate intermittently. Aliquots of protein lysates were prepared and then stored at −80° C. until protein quantification and Western blot analysis was to be conducted. […]
# [2] = system: CAL27 cells; assay: PD-L1 western blot after modulators (EM and MTAs); settings: Head and neck CAL27, 30 minutes, 3 hours, 24 hours
# From the text: as §1, §2, §3
# [3] = system: H1975 cells; assay: PD-L1 western blot after modulators (EM and MTAs); settings: NSCLC H1975, 30 minutes, 3 hours, 24 hours
# From the text: as §1, §2, §3
# [4] = system: BT549 cells; assay: PD-L1 western blot after modulators (EM and MTAs); settings: Breast BT549, 30 minutes, 3 hours, 24 hours
# From the text: as §1
# (§4) T7039), and IL-10 (50 ng/ml; Sigma Aldrich cat. no. SRP3071) were administered to cell lines for various times including 30 minutes, 3 hour, and 24 hour time intervals prior to cell lysis and protein extraction.
# (§5) To determine the effects of the aforementioned molecules on the modulation of PD-L1, we selected various NSCLC, HNSCC, breast cancer, melanoma, colorectal cancer, and pancreatic cancer cell lines as examples. Other diseases or cell lines could be used readily as could more complex samples such as cells isolated from xenografts and clinical samples. Cells were plated, for three different time points (30 minutes, 3 hours, and 24 hours), inside 6-well petri dishes with 2 mL of appropriate medium. Plates were incubated for 24 hours in 5% CO2 incubators at 37° C. After 24 hours, each 6-well plate was washed with PBS (Gibco Life Technologies, cat. no. 10010023) followed by fresh media being added along with each cell line's vehicle control or appropriate modulator for each specific time point, and were placed in CO2 incubators until their modulation time point was reached. Other conditions can be readily used, such as processing on automated systems such as SnapPath. At the end of each time point, while keeping plates on ice, cell lysis was conducted by aspirating culture medium from each plate, washing of each plate three times with 5 ml of cold PBS (Gibco Life Technologies, cat. no. 10010023) and culminated with the addition of cold 1× lysis buffer containing (Cell Signaling, cat. no. 9803 S) protease inhibitor cocktail (Cell Signaling, cat. no. 5871S), phosphatase inhibitor cocktail (Cell Signaling, cat. no. 5870S), and PMSF (Fisher Scientific, cat. no. ICN19538101). Plates were then placed on ice for ten minutes, swirling each plate intermittently. Aliquots of protein lysates were prepared and then stored at −80° C. until protein quantification and Western blot analysis was to be conducted. The protein concentration of each lysate was analyzed by using the Pierce 660 Protein Assay Reagent (Thermo Fisher Scientific, cat. no. 22660) and testing of each sample was conducted in duplicate. Two μg of protein was then loaded per lane into 10% Midi-PROTEAN TGX Precast Gels (Bio Rad, cat. no. 5671034) along with Kaleidoscope Prestained Protein Standard (BioRad, cat. no. 1610375) which ran at 220V for 45 minutes. Proteins were transferred to mini-PVDF membranes (BioRad, cat. no. 1704156) in 3 minutes using the Trans-Blot Turbo Transfer System (BioRad, cat. no. 1704150EDU).
# [5] = system: BxPC3 cells; assay: PD-L1 western blot after modulators (EM and MTAs); settings: Pancreatic BxPC3, 30 minutes, 3 hours, 24 hours
# From the text: as §1, §2, §3
# [6] = system: H292 cells; assay: PD-L1 western blot after modulators (EM and MTAs); settings: NSCLC H292, 30 minutes, 3 hours, 24 hours
# From the text: as §1, §4, §5
# [7] = system: various NSCLC, HNSCC, breast cancer, melanoma, colorectal cancer, and pancreatic cancer cell lines; assay: PD-L1 western blot after modulators, summary over all samples; settings: depending on the sample, summary of Table 3
# From the text: as §1, §4, §5
# [8] = system: KYSE410 cells; assay: PD-L1 western blot after modulators (EM and MTAs); settings: Head and neck KYSE410, 30 minutes, 3 hours, 24 hours
# From the text: as §1, §2, §3
# [9] = system: H2087 cells; assay: PD-L1 western blot after modulators (EM and MTAs); settings: NSCLC H2087, 30 minutes, 3 hours, 24 hours
# From the text: as §1, §2, §3
# [10] = system: BT20 cells; assay: PD-L1 western blot after modulators (EM and MTAs); settings: Breast BT20, 30 minutes, 3 hours, 24 hours
# From the text: as §1, §2, §3
# [11] = system: H1650 cells; assay: PD-L1 western blot after modulators (EM and MTAs); settings: NSCLC H1650, 30 minutes, 3 hours, 24 hours
# From the text: as §1, §4, §5
# [12] = system: H2126 cells; assay: PD-L1 western blot after modulators (EM and MTAs); settings: NSCLC H2126, 30 minutes, 3 hours, 24 hours
# From the text: as §1, §2, §3
Molecule,PD-L1 Response [3],PD-L1 Response [6],regulation of PD-L1 across samples [7],PD-L1 Response [10],other results
"Cn1ncc(Cl)c1-c1cc(C(=O)N[C@H](CN)Cc2ccc(F)c(F)c2)oc1Cl [GSK795, reference compound]",Down,–,–,–,PD-L1 Response [1]: Up; PD-L1 Response [2]: Up; PD-L1 Response [4]: Up
"CO[C@H]1C[C@@H]2CC[C@@H](C)[C@@](O)(O2)C(=O)C(=O)N2CCCC[C@H]2C(=O)O[C@H]([C@H](C)C[C@@H]2CC[C@@H](OCCO)[C@H](OC)C2)CC(=O)[C@H](C)/C=C(\C)[C@@H](O)[C@@H](OC)C(=O)[C@H](C)C[C@H](C)/C=C/C=C/C=C/1C [everolimus, Everolimus]",–,Down,both up and down regulation,–,PD-L1 Response [5]: Up
"C=CC(=O)Nc1cc(Nc2nccc(-c3cn(C)c4ccccc34)n2)c(OC)cc1N(C)CCN(C)C [Osimertinib, reference compound]",–,Down,both up and down regulation,–,PD-L1 Response [1]: Up; PD-L1 Response [8]: Up
"TGFb: enhancer molecule, 1 ng/ml; Sigma Aldrich",–,–,only led to upregulation,–,–
"GM-CSF: enhancer molecule, 50 ng/ml; Sigma Aldrich",–,–,only led to upregulation,–,PD-L1 Response [9]: Up
"COc1ncc(-c2ccc3nccc(-c4ccnnc4)c3c2)cc1NS(=O)(=O)c1ccc(F)cc1F [GSK458, reference compound]",–,Down,both up and down regulation,Up,PD-L1 Response [5]: Up
B1,Up,–,both up and down regulation,Up,PD-L1 Response [9]: Down; PD-L1 Response [11]: Up
B2,Down,–,–,–,–
B3,Up,Up,only led to upregulation,Up,PD-L1 Response [12]: Up; PD-L1 Response [8]: Up; PD-L1 Response [4]: Up; PD-L1 Response [11]: Up
